Test systems include DU-145; Hs-578T; MCF7; DLD-1; LXFL 529; M19-MEL; SNB-78.
Experiment in all cases: DTP human tumour cell line panel, 48 h

Structures are written as SMILES.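 Results reflect a 48-hour exposure of cells in 96-well plates to compound at five concentrations. The concentration for 50% growth inhibition is given as GI50.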 The source made the active and inactive calls. Rule as the data show it: active = GI50 up to about 1.1 µM and inactive = higher. Bridge positions count the residues as written; N and C are the ends. Where a SMILES comes first, the peptide text is derived from it. Square brackets hold non-standard residues; d marks the D form. Peptide text beside a SMILES is read from it. I, II: the chains in the order shown. The star is where a group is joined. * marks the point of attachment. Quinoxaline2carbonyl = O=C(c1cnc2ccccc2n1)*; NMeV = CN[CH](C(=O)O)C(C)C; NMeC = CN[CH](CS)C(=O)O; Boc = CC(C)(C)OC(=O)*; nBu = CCCC*

Take `COCCOCCOC1=C(Cl)C(=O)c2c(O)ccc(O)c2C1=O`: the GI50 (as a rule, the concentration that inhibits growth by half) in the experiment with DU-145 was 9.31 µM (inactive); with Hs-578T, 3.11 µM (inactive); with MCF7, 1.97 µM (inactive).

Regarding `COC1C(O)C(C)OC(O[C@@H]2C[C@H]3CC[C@@H]4[C@H](CC[C@]5(C)[C@@H](C6=CC(=O)OC6)CC[C@]45O)[C@@]3(C)[C@H](O)C2)C1O` (stereo partly specified), the GI50 was < 0.0302 µM (active) with DU-145 and 0.182 µM (active) in the experiment on Hs-578T.

As for `OCCN(CCO)c1ncnc2[nH]cnc12`, the GI50 was > 100 µM (inactive) in the experiment with DU-145, 53.6 µM (inactive) with Hs-578T and > 100 µM (inactive) in the experiment on MCF7.

`N#CC1(C#N)C(C#N)(C#N)C12CCCCCC2`: the GI50 in the experiment on DLD-1 was 4.1 µM (inactive); in the experiment with LXFL 529, 15.2 µM (inactive); in the experiment on M19-MEL, 20.5 µM (inactive); in the experiment on SNB-78 it was 13.3 µM (inactive).

Consider `O=C(/C=C/c1cccs1)c1ccc(C(=O)/C=C/c2cccs2)cc1`, for which the GI50 with DU-145 and in the experiment with Hs-578T was > 100 µM (inactive) throughout.

With `O=C(c1ccc(Cl)cc1)N(C(=S)OCc1ccccn1)c1ccccc1`, the GI50 was 58.6 µM (inactive) with DU-145, > 100 µM (inactive) in the experiment on Hs-578T and 46.3 µM (inactive) in the experiment with MCF7.

Consider `COc1ccc(C(=O)OCC2OC(n3cnc4c(=S)nc[nH]c43)C(OC(=O)c3ccc(OC)cc3)C2OC(=O)c2ccc(OC)cc2)cc1` (stereo unspecified), for which the GI50 with DLD-1 was 11.6 µM (inactive); in the experiment on LXFL 529, > 100 µM (inactive); in the experiment on M19-MEL, > 100 µM (inactive).

On to `COC(=O)C1(C)OC(C)=NC1(C(=O)OC)C(=O)OC` (stereo unspecified), for which the GI50 with DU-145, with Hs-578T and in the experiment with MCF7 was > 100 µM (inactive) each time.

On to `COc1ccc(C2=NN(C(=O)c3cccnc3)C(O)(c3cc(F)c(Cl)cc3Cl)C2)cc1OC` (stereo unspecified), for which the GI50 is 27.9 µM (inactive) with DU-145 and 19.4 µM (inactive) with Hs-578T.

Take `CO/C=C(/C(=O)OC)[C@@H]1C[C@@H]1c1ccc2ccccc2c1`: the results for the GI50 with DU-145, in the experiment with Hs-578T and in the experiment on MCF7 were 38.9 µM (inactive), 31.8 µM (inactive) and 30.3 µM (inactive), respectively.

With `c1ccc2c(CSCc3cccc4ccccc34)cccc2c1`, the GI50 with DU-145 and in the experiment on Hs-578T was > 100 µM (inactive) throughout.

`CO[C@@]12[C@H](COC(N)=O)C3=C(C(=O)C(C)=C(N)C3=O)N1C[C@@H]1N[C@@H]12` [MITOMYCIN]: the GI50 is 2.8 µM (inactive) with DLD-1, 3.22 µM (inactive) in the experiment on Hs-578T, 2.55 µM (inactive) with LXFL 529 and 0.148 µM (active) in the experiment on MCF7.

Regarding `CC(=O)On1c(-c2ccccc2-c2nc3ccccc3n2OC(C)=O)nc2ccccc21`, the values for the GI50 in the experiment with DU-145, in the experiment with Hs-578T and with MCF7 were 49.7 µM (inactive), 37.8 µM (inactive) and 26.7 µM (inactive), respectively.

In the case of `CN1CCC[N+](C)=C1c1ccccc1`, the GI50 in the experiment with DU-145, in the experiment on Hs-578T and in the experiment on MCF7 was > 100 µM (inactive) throughout.

As to `CCCCCC(=O)OCC1(CO)C/C(=C\CC(C(C)C)C(C)C)C(=O)O1` (stereo unspecified), the GI50 in the experiment on DU-145 is > 100 µM (inactive); in the experiment on Hs-578T it was 24.5 µM (inactive); in the experiment on MCF7, 78.7 µM (inactive).

In the case of `Cc1ccc(/C=C2\Cc3cccc(C)c3C2=O)c(C(=O)O)c1`, the GI50 was > 100 µM (inactive) in the experiment on DU-145, > 100 µM (inactive) in the experiment with Hs-578T and > 10 µM (inactive) in the experiment with MCF7.

Regarding `CC1CCCN1CCCOC(=O)c1ccc(OC2C=CCCC2)cc1` (stereo unspecified), the GI50 in the experiment on DU-145 is > 100 µM (inactive); with Hs-578T, 32.4 µM (inactive); in the experiment with MCF7, 25.1 µM (inactive).

With `CN(NC(=O)c1ccc(Cl)cc1)C1=NCCCCN1`, the GI50 in the experiment with Hs-578T and in the experiment with MCF7 was > 100 µM (inactive) throughout.

Consider `Clc1ccc(C(Cc2ccccc2)c2c(Cl)nc(N3CCNCC3)nc2Cl)cc1` (stereo unspecified), for which the GI50 in the experiment with DU-145 was 14.5 µM (inactive); with Hs-578T it was 14.8 µM (inactive); in the experiment with MCF7 it was 5.38 µM (inactive).

For the compound `COC(=O)[C@@H](Nc1ccccc1)[C@@]1(C(=O)OC)SC12c1ccccc1-c1ccccc12`, the results for the GI50 with DU-145, with Hs-578T and with MCF7 were > 100 µM (inactive), > 100 µM (inactive) and 34.2 µM (inactive), respectively.

Take `CCN(CC)Cc1sc2nc3ccccc3n2c1-c1ccc(OC)cc1`: the GI50 in the experiment on DU-145 was 35.4 µM (inactive); with Hs-578T, 34.9 µM (inactive); in the experiment with MCF7, 23 µM (inactive).

On to `CC(=O)/C(=C/N1CCNC1=S)C(=O)Nc1ccccc1C`, for which the GI50 with DU-145, in the experiment on Hs-578T and in the experiment on MCF7 was > 100 µM (inactive) each time.

With `Cc1ccc2[nH]c3c(C)c4cc[n+](C)cc4c(C)c3c2c1`, the GI50 with DLD-1 is 1.67 µM (inactive); in the experiment on DU-145, 0.628 µM (active); in the experiment on Hs-578T, 0.232 µM (active); with LXFL 529, 0.743 µM (active); in the experiment with MCF7, 1.95 µM (inactive); in the experiment on SNB-78, 0.787 µM (active).

In the case of `CC(=C(C(N)=O)C(N)=O)C1C=C(c2cccs2)CC(c2ccc(Cl)cc2)=C1O` (stereo unspecified), the GI50 in the experiment on DU-145 is 63.5 µM (inactive); with Hs-578T, > 100 µM (inactive); with MCF7 it was 8.95 µM (inactive).

`CN(Cc1cnc2nc(N)nc(N)c2n1)c1ccc(C(=O)NC(CCC(=O)O)C(=O)O)cc1` (stereo unspecified): the GI50 with DU-145 is 0.0154 µM (active).

For `CC(C)(C)OC(=O)N1CCCC1C(=O)NC(c1ccccc1)c1ccccc1` (stereo unspecified), the GI50 in the experiment on DU-145, in the experiment on Hs-578T and in the experiment with MCF7 was > 100 µM (inactive) throughout.

For the compound `COC(=O)CCc1ccc2c(c1)[C@H](C(=O)OC)[C@@H](c1ccc(O)cc1)O2`, the results for the GI50 in the experiment on DU-145, in the experiment with Hs-578T and with MCF7 were > 100 µM (inactive), > 100 µM (inactive) and 72.9 µM (inactive), respectively.

As for `C(=N\c1ccc(-c2cc(-c3ccccc3)nc3ccc4ccccc4c23)cc1)/c1ccccc1`, the GI50 was 20.7 µM (inactive) in the experiment with DU-145, 5.86 µM (inactive) with Hs-578T and 9.25 µM (inactive) with MCF7.

For `CCCCOc1ccc(CC(NC(=O)OC(C)(C)C)C(=O)NC(C)C(=O)NC(Cc2ccccc2)C(=O)NCC(N)=O)cc1` (stereo unspecified) (Boc-Y(nBu)AFG-NH2; configuration not given here), the values for the GI50 with DU-145, with Hs-578T and with MCF7 were > 100 µM (inactive), > 100 µM (inactive) and 41.1 µM (inactive), respectively.

On to `CO[C@@]12C[C@@H](C)C3=CCC(C)=C3CC1=C(C)C(=O)O2`, for which the GI50 in the experiment on Hs-578T was > 100 µM (inactive).

For `CC1(C)CCCOc2cccc(c2)OCCCC(C)(C)C1=O`, the values for the GI50 with DU-145, in the experiment on Hs-578T and in the experiment with MCF7 were 85.3 µM (inactive), 39.7 µM (inactive) and 31 µM (inactive), respectively.

Take `NC(=O)Cc1nc2c(N)ncnc2n1C1OC(CO)C(O)C1O` (stereo unspecified): the GI50 in the experiment with DU-145, in the experiment with Hs-578T and in the experiment on MCF7 was > 100 µM (inactive) throughout.

Turning to `CCN1CCCCCCCCCC(=N/O)/C(=N\O)C1`, the GI50 in the experiment on DU-145 and in the experiment with MCF7 was > 100 µM (inactive) throughout.

In the case of `NC(=O)C(=O)c1ncn(Cc2ccccc2)c1N`, the GI50 with DU-145, with Hs-578T and with MCF7 was > 100 µM (inactive) throughout.

As for `ClC1CCC2OOC1O2` (stereo unspecified), the GI50 in the experiment with M19-MEL and with SNB-78 was > 100 µM (inactive) in each case.

As to `CC1(C)OCC(C2OC3OC(C)(C)OC3C2c2ccccc2)O1` (stereo unspecified), the results for the GI50 in the experiment on DU-145, with Hs-578T and with MCF7 were 45.6 µM (inactive), 20.7 µM (inactive) and 50.7 µM (inactive), respectively.

Turning to `C#CCCCC(=C)C[C@H](OCc1ccccc1)[C@H]1OC(=O)[C@@H]1C`, the GI50 in the experiment on MCF7 was 37.2 µM (inactive).

Regarding `OC1=C(c2ccccc2)C2=NCCN2c2ccccc21`, the figures for the GI50 in the experiment with DU-145, with Hs-578T and with MCF7 were 84.1 µM (inactive), 28.1 µM (inactive) and 42.1 µM (inactive), respectively.

Consider `COc1cc(C2c3cc4c(cc3OC(Nc3ccccc3)C2C)OCO4)cc(OC)c1O` (stereo unspecified), for which the GI50 in the experiment with DU-145 was 4.02 µM (inactive); with MCF7, 4.47 µM (inactive).

For the compound `COc1ccc(CC2Cc3ccccc3CCN2)cc1OC` (stereo unspecified), the GI50 is > 50 µM (inactive) in the experiment with DU-145, 23.8 µM (inactive) in the experiment with Hs-578T and > 50 µM (inactive) with MCF7.

`CC(C)C1=CC23CCC4C(C)(C(=O)O)CCCC4(C)C2CC1C1C(=O)N(CCCCCCN2C(=O)C4C5CC6C7(C)CCCC(C)(C(=O)O)C7CCC6(C=C5C(C)C)C4C2=O)C(=O)C13` (stereo unspecified): the values for the GI50 with DU-145, in the experiment on Hs-578T and in the experiment with MCF7 were > 10 µM (inactive), 12.3 µM (inactive) and 6.76 µM (inactive), respectively.

Regarding `CC[C@@]1(N(C)C)C(=O)OCc2c1cc1n(c2=O)Cc2cc3ccccc3nc2-1`, the GI50 in the experiment with DU-145 is 21.1 µM (inactive); in the experiment with MCF7, 32.1 µM (inactive).

On to `NC(Cc1cccc([N+](=O)[O-])c1)C(=O)O` (stereo unspecified), for which the GI50 in the experiment with DU-145, in the experiment on Hs-578T and in the experiment on MCF7 was > 100 µM (inactive) in each case.

Turning to `CC1NC(=O)C(NC(=O)c2cnc3ccccc3n2)COC(=O)C(C(C)C)N(C)C(=O)C2CSSCC(C(=O)N(C)C(C(C)C)C(=O)OCC(NC(=O)c3cnc4ccccc4n3)C(=O)NC(C)C(=O)N2C)N(C)C1=O` (stereo unspecified) (I: Quinoxaline2carbonyl-SA[NMeC][NMeV] / II: Quinoxaline2carbonyl-SA[NMeC][NMeV]; ester I:1-II:C, I:C-II:1; disulfide I:3-II:3; configuration not given here), the GI50 in the experiment with DU-145, in the experiment on Hs-578T and with MCF7 was < 0.01 µM (active) each time.

Regarding `C=C(CC[C@@H](C)[C@H]1CC[C@@]2(C)C3=C(CC[C@]12C)[C@@]1(C)CC[C@H](O)[C@@H](C)C1CC3)C(C)C` (stereo partly specified), the GI50 in the experiment with Hs-578T is 1.6 µM (inactive); in the experiment on MCF7, 1.47 µM (inactive).

Regarding `C1=CN2C[n+]3ccc4ccccc4c3N=C2c2ccccc21`, the GI50 is 6.62 µM (inactive) in the experiment with DU-145, 3.92 µM (inactive) in the experiment with Hs-578T and 0.929 µM (active) in the experiment on MCF7.

With `C/C(=C1\C(=O)C(c2ccccc2)N(c2ccccc2)C1=O)c1ccc(Cl)cc1` (stereo unspecified), the GI50 in the experiment on DU-145 was 18.7 µM (inactive); in the experiment with Hs-578T it was 18.7 µM (inactive); with MCF7 it was 35.1 µM (inactive).

Consider `COc1ccc(C(=O)Oc2c(C#N)sc3c2c(=O)n(-c2ccccc2)c(=S)n3-c2ccccc2)cc1`, for which the GI50 is 33 µM (inactive) in the experiment with DU-145, 25.9 µM (inactive) in the experiment on Hs-578T and 15 µM (inactive) with MCF7.

Consider `O=C(O)CSc1ccc2nc3ccccc3c(O)c2c1`, for which the GI50 in the experiment on DLD-1, with LXFL 529 and in the experiment on M19-MEL was > 100 µM (inactive) each time.

The record behind these values is ChEMBL document CHEMBL1201862, “PubChem BioAssay data set” (2004).
